The record followed here is patent US20240116988A1, “ANTI-ROR1 MACROCYCLIC PEPTIDES AND COMPOSITIONS” (BRISTOL-MYERS SQUIBB COMPANY, priority 2022, published 2024).

The structures appear in SMILES notation. Positions of bridges follow the written chain, without caps; N, C: chain ends. Non-standard residues stand in square brackets, D forms with d. Residues, ends and D or L forms follow the SMILES beside them. ξ: configuration not given here. NMeF = CN[C@@H](Cc1ccccc1)C(=O)O; PEG5 = NCCOCCOCCOCCOCCOCCC(=O)O; NMeNle = CCCC[C@H](NC)C(=O)O; PEG3 = NCCOCCOCCOCCC(=O)O; NMeA = CN[C@@H](C)C(=O)O; AEEA = NCCOCCOCC(=O)O; ξL = CC(C)CC(N)C(=O)O

The test deals with T1, human ROR1 (Homo sapiens, UniProt Q01973).
T1 construct: host or cells: HEK 293T cells, Tet-on system induced with doxycycline
T1 sequence (Q01973 30-937): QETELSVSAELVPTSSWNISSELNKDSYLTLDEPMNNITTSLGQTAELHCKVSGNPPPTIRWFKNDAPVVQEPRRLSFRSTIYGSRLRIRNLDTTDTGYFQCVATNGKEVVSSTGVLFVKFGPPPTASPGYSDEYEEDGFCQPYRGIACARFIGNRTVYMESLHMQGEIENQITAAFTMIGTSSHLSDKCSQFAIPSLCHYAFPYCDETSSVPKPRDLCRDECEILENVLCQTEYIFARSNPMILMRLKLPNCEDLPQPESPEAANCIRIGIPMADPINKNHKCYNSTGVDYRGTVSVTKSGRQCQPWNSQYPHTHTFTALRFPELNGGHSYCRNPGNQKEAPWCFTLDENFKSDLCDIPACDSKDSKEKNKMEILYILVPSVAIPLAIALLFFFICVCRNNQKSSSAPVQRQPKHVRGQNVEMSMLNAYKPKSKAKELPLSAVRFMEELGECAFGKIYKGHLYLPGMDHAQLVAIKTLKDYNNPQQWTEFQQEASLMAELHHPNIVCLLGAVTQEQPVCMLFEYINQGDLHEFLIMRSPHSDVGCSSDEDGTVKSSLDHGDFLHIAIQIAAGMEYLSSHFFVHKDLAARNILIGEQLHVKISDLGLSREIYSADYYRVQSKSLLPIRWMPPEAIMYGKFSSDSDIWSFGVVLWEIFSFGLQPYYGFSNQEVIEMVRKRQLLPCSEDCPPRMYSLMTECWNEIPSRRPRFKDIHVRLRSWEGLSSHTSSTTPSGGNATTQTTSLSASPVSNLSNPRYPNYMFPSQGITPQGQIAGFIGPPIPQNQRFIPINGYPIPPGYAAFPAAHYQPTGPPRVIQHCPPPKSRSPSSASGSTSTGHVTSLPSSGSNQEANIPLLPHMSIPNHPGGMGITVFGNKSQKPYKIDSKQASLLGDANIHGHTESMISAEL
The experiment in a line: ROR1 high content cell-based binding assay. To be noted: read-out: ROR1 Binding 293T Human HC Cell Based Assay IC50. A digest of the protocol: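 Doxycycline-induced 293T cells expressing human ROR1, seeded overnight, were treated with compound plus 5-FAM-labeled ROR1-binding probe peptide (30 nM final) for 1 h at 37 °C. After washing and formaldehyde/Hoechst fixation, cell-bound probe fluorescence was read by high-content imaging.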
The IC50 is the midpoint of a concentration-inhibition curve. As for `CC(C)C[C@@H]1NC(=O)[C@H](Cc2ccc(O)cc2)NC(=O)[C@H]([C@@H](C)O)NC(=O)CSC[C@@H](C(=O)NCC(N)=O)NC(=O)[C@H](CC(C)C)NC(=O)[C@H](Cc2ccccc2)N(C)C(=O)[C@H](Cc2ccc(O)cc2)NC(=O)[C@H](Cc2c[nH]c3ccccc23)NC(=O)CNC(=O)[C@H](CO)NC(=O)[C@H](Cc2ccc(O)cc2)NC(=O)[C@H](C(C)C)NC1=O` [Example 1073] ({CH2CO}-TYLVYSGWY[NMeF]LCG-NH2; thioether N-12), the 50% inhibitory concentration (IC50) is 0.249 µM.

With `CC(C)CC1NC(=O)[C@H](Cc2ccc(O)cc2)NC(=O)[C@H](C(C)C)NC(=O)CSC[C@@H](C(=O)NCC(N)=O)NC(=O)[C@H](CC(C)C)NC(=O)[C@H](Cc2ccccc2)N(C)C(=O)[C@H](Cc2ccc(O)cc2)NC(=O)[C@H](Cc2c[nH]c3ccccc23)NC(=O)CNC(=O)[C@H](CO)NC(=O)[C@H](Cc2ccc(O)cc2)NC(=O)[C@H](C(C)C)NC1=O` (stereo partly drawn) [Example 1074] ({CH2CO}-VY[ξL]VYSGWY[NMeF]LCG-NH2; thioether N-12), the IC50 turned out to be 0.122 µM.

With `CC(C)C[C@@H]1NC(=O)[C@H](Cc2ccc(O)cc2)NC(=O)[C@H](Cc2cnc[nH]2)NC(=O)CSC[C@@H](C(=O)NCC(N)=O)NC(=O)[C@H](CC(C)C)NC(=O)[C@H](Cc2ccccc2)N(C)C(=O)[C@H](Cc2ccc(O)cc2)NC(=O)[C@H](Cc2c[nH]c3ccccc23)NC(=O)CNC(=O)[C@H](CO)NC(=O)[C@H](Cc2ccc(O)cc2)NC(=O)[C@H](C(C)C)NC1=O` [Example 1075] ({CH2CO}-HYLVYSGWY[NMeF]LCG-NH2; thioether N-12), the IC50 is 0.03 µM.

As for `CC(C)C[C@@H]1NC(=O)[C@H](Cc2ccc(O)cc2)NC(=O)[C@H](CC(N)=O)NC(=O)CSC[C@@H](C(=O)NCC(N)=O)NC(=O)[C@H](CC(C)C)NC(=O)[C@H](Cc2ccccc2)N(C)C(=O)[C@H](Cc2ccc(O)cc2)NC(=O)[C@H](Cc2c[nH]c3ccccc23)NC(=O)CNC(=O)[C@H](CO)NC(=O)[C@H](Cc2ccc(O)cc2)NC(=O)[C@H](C(C)C)NC1=O` [Example 1076] ({CH2CO}-NYLVYSGWY[NMeF]LCG-NH2; thioether N-12), the IC50 stood at 0.518 µM.

As to `CC(C)C[C@@H]1NC(=O)[C@H](Cc2ccc(O)cc2)NC(=O)[C@H](Cc2c[nH]c3ccccc23)NC(=O)CSC[C@@H](C(=O)NCC(N)=O)NC(=O)[C@H](CC(C)C)NC(=O)[C@H](Cc2ccccc2)N(C)C(=O)[C@H](Cc2ccc(O)cc2)NC(=O)[C@H](Cc2c[nH]c3ccccc23)NC(=O)CNC(=O)[C@H](CO)NC(=O)[C@H](Cc2ccc(O)cc2)NC(=O)[C@H](C(C)C)NC1=O` [Example 1077] ({CH2CO}-WYLVYSGWY[NMeF]LCG-NH2; thioether N-12), the IC50 turned out to be 0.002 µM.

On to `CCCC[C@H]1C(=O)N[C@@H](CC(C)C)C(=O)N[C@H](C(=O)NCCOCCOCC(=O)N[C@@H](CCCCN)C(N)=O)CSCC(=O)N[C@@H](Cc2ccccc2)C(=O)N[C@@H](Cc2ccc(O)cc2)C(=O)N[C@@H](Cc2c[nH]c3ccccc23)C(=O)N[C@@H](CO)C(=O)N[C@@H](CO)C(=O)N[C@@H](CCCNC(=N)N)C(=O)N(C)[C@@H](C)C(=O)N[C@@H](Cc2c[nH]c3ccccc23)C(=O)N[C@@H](Cc2ccc(O)cc2)C(=O)N1C` [Example 1079] ({CH2CO}-FYWSSR[NMeA]WY[NMeNle]LC[AEEA]K-NH2; thioether N-12), for which the IC50 turned out to be 0.025 µM.

Take `CC(C)C[C@@H]1NC(=O)[C@H](Cc2ccc(O)cc2)NC(=O)[C@H](Cc2ccccc2)NC(=O)CSC[C@@H](C(=O)NCC(=O)O)NC(=O)[C@H](CC(C)C)NC(=O)[C@H](Cc2ccccc2)N(C)C(=O)[C@H](Cc2ccc(O)cc2)NC(=O)[C@H](Cc2c[nH]c3ccccc23)NC(=O)CNC(=O)[C@H](CO)NC(=O)[C@H](Cc2ccc(O)cc2)NC(=O)[C@H](C(C)C)NC1=O` [Example 1080] ({CH2CO}-FYLVYSGWY[NMeF]LCG-OH; thioether N-12): the IC50 was determined as 0.217 µM.

For the molecule `CC[C@H](C)[C@@H]1NC(=O)[C@H](Cc2ccccc2)NC(=O)CSC[C@@H](C(=O)NCC(=O)NCCOCCOCC(=O)N[C@@H](CCCCN)C(N)=O)NC(=O)[C@H](C)NC(=O)[C@H](Cc2ccccc2)NC(=O)[C@H](Cc2ccc(O)cc2)NC(=O)[C@H](Cc2c[nH]c3ccccc23)NC(=O)CNC(=O)[C@H](CCC(=O)O)NC(=O)[C@H](Cc2ccc(O)cc2)NC(=O)[C@H](C(C)C)NC(=O)[C@H](Cc2c[nH]c3ccccc23)NC1=O` [Example 1081] ({CH2CO}-FIWVYEGWYFACG[AEEA]K-NH2; thioether N-12), the 50% inhibitory concentration (IC50) turned out to be 0.177 µM.

Consider `CC(C)C[C@@H]1NC(=O)[C@H](Cc2ccc(O)cc2)NC(=O)[C@H](Cc2ccccc2)N(C)C(=O)CSC[C@@H](C(=O)NCC(N)=O)NC(=O)[C@H](CC(C)C)NC(=O)[C@H](Cc2ccccc2)N(C)C(=O)[C@H](Cc2ccc(O)cc2)NC(=O)[C@H](Cc2c[nH]c3ccccc23)NC(=O)CNC(=O)[C@H](CO)NC(=O)[C@H](Cc2ccc(O)cc2)NC(=O)[C@H](C(C)C)NC1=O` [Example 1082] ({CH2CO}-[NMeF]YLVYSGWY[NMeF]LCG-NH2; thioether N-12), for which the IC50 stood at 0.192 µM.

On to `CC(C)C[C@@H]1NC(=O)[C@H](Cc2ccc(O)cc2)NC(=O)[C@H](Cc2ccccc2)NC(=O)CSC[C@@H](C(=O)NCCOCCOCCOCCOCCOCCC(=O)N[C@@H](CCCCN)C(N)=O)NC(=O)[C@H](CC(C)C)NC(=O)[C@H](Cc2ccccc2)N(C)C(=O)[C@H](Cc2ccc(O)cc2)NC(=O)[C@H](Cc2c[nH]c3ccccc23)NC(=O)CNC(=O)[C@H](CO)NC(=O)[C@H](Cc2ccc(O)cc2)NC(=O)[C@H](C(C)C)NC1=O` [Example 1083] ({CH2CO}-FYLVYSGWY[NMeF]LC[PEG5]K-NH2; thioether N-12), for which the concentration for half-maximal inhibition (IC50) turned out to be 0.022 µM.

As for `CC[C@H](C)[C@@H]1NC(=O)CSC[C@@H](C(=O)NCC(N)=O)NC(=O)[C@H](CC(C)C)NC(=O)[C@H](Cc2ccccc2)N(C)C(=O)[C@H](Cc2ccc(O)cc2)NC(=O)[C@H](Cc2c[nH]c3ccccc23)NC(=O)CNC(=O)[C@H](CO)NC(=O)[C@H](Cc2ccc(O)cc2)NC(=O)[C@H](C(C)C)NC(=O)[C@H](CC(C)C)NC(=O)[C@H](Cc2ccc(O)cc2)NC1=O` [Example 1084] ({CH2CO}-IYLVYSGWY[NMeF]LCG-NH2; thioether N-12), the IC50 is 0.227 µM.

Turning to `CC(C)C[C@@H]1NC(=O)[C@H](Cc2ccc(O)cc2)NC(=O)[C@H](Cc2ccccc2)NC(=O)CSC[C@@H](C(=O)NCCOCCOCCOCCC(=O)N[C@@H](CCCCN)C(N)=O)NC(=O)[C@H](CC(C)C)NC(=O)[C@H](Cc2ccccc2)N(C)C(=O)[C@H](Cc2ccc(O)cc2)NC(=O)[C@H](Cc2c[nH]c3ccccc23)NC(=O)CNC(=O)[C@H](CO)NC(=O)[C@H](Cc2ccc(O)cc2)NC(=O)[C@H](C(C)C)NC1=O` [Example 1085] ({CH2CO}-FYLVYSGWY[NMeF]LC[PEG3]K-NH2; thioether N-12), the IC50 amounted to 0.018 µM.

Turning to `CC(C)C[C@@H]1NC(=O)[C@H](Cc2ccccc2)NC(=O)CSC[C@@H](C(=O)NCCOCCOCC(=O)O)NC(=O)[C@H](C)NC(=O)[C@H](Cc2ccc(O)cc2)NC(=O)[C@H](Cc2ccc(O)cc2)NC(=O)[C@H](Cc2c[nH]c3ccccc23)NC(=O)CNC(=O)[C@H](Cc2ccc(O)cc2)NC(=O)[C@H](CCCNC(=N)N)NC(=O)[C@H](C(C)C)NC(=O)[C@H](Cc2c[nH]c3ccccc23)NC1=O` [Example 1086] ({CH2CO}-FLWVRYGWYYAC[AEEA]-OH; thioether N-12), the IC50 was 0.364 µM.

In the case of `CC(C)C[C@@H]1NC(=O)[C@H](Cc2ccccc2)NC(=O)CSC[C@@H](C(=O)NCC(=O)NCCOCCOCC(=O)O)NC(=O)[C@H](C)NC(=O)[C@H](Cc2ccc(O)cc2)NC(=O)[C@H](Cc2ccc(O)cc2)NC(=O)[C@H](Cc2c[nH]c3ccccc23)NC(=O)CNC(=O)[C@H](Cc2ccc(O)cc2)NC(=O)[C@H](CCCNC(=N)N)NC(=O)[C@H](C(C)C)NC(=O)[C@H](Cc2c[nH]c3ccccc23)NC1=O` [Example 1087] ({CH2CO}-FLWVRYGWYYACG[AEEA]-OH; thioether N-12), the IC50 came to 0.131 µM.

For the molecule `CC(C)C[C@@H]1NC(=O)[C@H](Cc2ccc(O)cc2)NC(=O)[C@H](CCC(N)=O)NC(=O)CSC[C@@H](C(=O)NCC(N)=O)NC(=O)[C@H](CC(C)C)NC(=O)[C@H](Cc2ccccc2)N(C)C(=O)[C@H](Cc2ccc(O)cc2)NC(=O)[C@H](Cc2c[nH]c3ccccc23)NC(=O)CNC(=O)[C@H](CO)NC(=O)[C@H](Cc2ccc(O)cc2)NC(=O)[C@H](C(C)C)NC1=O` [Example 1088] ({CH2CO}-QYLVYSGWY[NMeF]LCG-NH2; thioether N-12), the IC50 was 0.083 µM.

As to `CC(C)C[C@@H]1NC(=O)[C@H](Cc2ccc(O)cc2)NC(=O)[C@H](Cc2ccccc2)NC(=O)CSC[C@@H](C(=O)NCCOCCOCC(=O)N[C@@H](CCCCN)C(N)=O)NC(=O)[C@H](CC(C)C)NC(=O)[C@H](Cc2ccccc2)N(C)C(=O)[C@H](Cc2ccc(O)cc2)NC(=O)[C@H](Cc2c[nH]c3ccccc23)NC(=O)CNC(=O)[C@H](CO)NC(=O)[C@H](Cc2ccc(O)cc2)NC(=O)[C@H](C(C)C)NC1=O` [Example 1089] ({CH2CO}-FYLVYSGWY[NMeF]LC[AEEA]K-NH2; thioether N-12), the IC50 stood at 0.077 µM.

For `CC(C)C[C@@H]1NC(=O)[C@H](Cc2ccc(O)cc2)NC(=O)[C@H](Cc2ccccc2)NC(=O)CSC[C@@H](C(=O)NCCOCCOCC(=O)O)NC(=O)[C@H](CC(C)C)NC(=O)[C@H](Cc2ccccc2)N(C)C(=O)[C@H](Cc2ccc(O)cc2)NC(=O)[C@H](Cc2c[nH]c3ccccc23)NC(=O)CNC(=O)[C@H](CO)NC(=O)[C@H](Cc2ccc(O)cc2)NC(=O)[C@H](C(C)C)NC1=O` [Example 1090] ({CH2CO}-FYLVYSGWY[NMeF]LC[AEEA]-OH; thioether N-12), the IC50 was determined as 0.067 µM.

With `CC(C)[C@@H]1NC(=O)[C@H](Cc2c[nH]c3ccccc23)NC(=O)[C@H](Cc2ccc(O)cc2)NC(=O)[C@H](Cc2c[nH]c3ccccc23)NC(=O)CNC(=O)[C@H](Cc2c[nH]c3ccccc23)NC(=O)[C@H](CCCNC(=N)N)NC(=O)[C@H](C(C)C)NC(=O)[C@H](Cc2ccccc2)N(C)C(=O)[C@H](CCCNC(=N)N)NC(=O)[C@H](Cc2ccccc2)NC(=O)CSC[C@@H](C(=O)NCCOCCOCC(=O)O)NC1=O` [Example 1091] ({CH2CO}-FR[NMeF]VRWGWYWVC[AEEA]-OH; thioether N-12), the IC50 came out at 0.565 µM.
